{
  "source": "patent US20230323463A1",
  "about": "“COMPOSITIONS AND METHODS FOR DETECTING BCL2L14 AND ETV6 GENE FUSIONS FOR DETERMINING INCREASED DRUG RESISTANCE” (UNIVERSITY OF PITTSBURGH-OF THE COMMONWEALTH SYSTEM OF …, priority 2020, published 2023)",
  "assay_type_in_all_cases": "cell-based, human",
  "key": {"[1]": {"test_system": "engineered stable BT20 cells", "test": "Paclitaxel dose curve, cell proliferation by MTS assay", "settings": "BT20 cells expressing BCL2L14-ETV6 fusions vs vector or wtETV6; short-term (72 h) treatment, various doses", "experimental": "(§1) Cell proliferation and clonogenic assays. Engineered stable BT20 cells were seeded at a density of 3,000 cells/well in a 96-well plate. Cell proliferation was measured by MTS assay at different time points using CellTiter 96 AQueous One Solution Cell Proliferation Assay (Promega). For paclitaxel dose curve, stable BT20 cells were seeded at a density of 5000 cells/well in a 96-well plate and treated with vehicle or different doses of paclitaxel. Cell proliferation was measured by MTS assay after 72 hours of treatment. For clonogenic assay, stable BT20 or MCF10A cells were seeded at a density of 10,000 cells/well in a 24-well plate. After attachment to the plate, cells were treated with 0.1% DMSO (vehicle) or paclitaxel at 5 nM for BT20 cells for 6 days or 15 nM for MCF10A cells for 5 days before replacement of the chemical with fresh growth medium. The remaining colonies were growing in the plate for one month and then stained with 0.5% crystal violet in 50% ethanol and counted using ChemiDoc photography (Bio-Rad) and ImageJ."}, "[2]": {"test_system": "engineered stable BT20 cells", "test": "Clonogenic assay after prolonged paclitaxel treatment, BT20", "settings": "5 nM paclitaxel, one month", "experimental": "as §1"}, "[3]": {"test_system": "engineered stable MCF10A cells", "test": "Clonogenic assay after prolonged paclitaxel treatment, MCF10A", "settings": "MCF10A cells expressing BCL2L14-ETV6 fusions vs vector or wtETV6; 15 nM paclitaxel, one month", "experimental": "as §1"}, "[4]": {"test_system": "engineered BT20 cells", "test": "Apoptotic biomarkers by immunoblotting after paclitaxel treatment", "settings": "BT20 cells overexpressing BCL2L14-ETV6 fusions vs wtETV6-expressing cells; 48 hours", "protocol": "Western blot. For immunoblot analysis, total proteins were extracted by homogenizing the cells in NP40 Lysis Buffer supplemented with complete protease inhibitor cocktail tablet (Roche), 1 mM DTT, and 1 mM PMSF. 20~50 micrograms of protein extracts were denatured in sample buffer, separated by SDS-PAGE, and transferred onto a PVDF membrane (GE). The membranes were blocked and then incubated for 1 h at room temperature or overnight at 4° C. with primary antibodies, followed by incubation with respective horseradish peroxidaseconjugated secondary antibody. The signals were then visualized by the enhanced chemiluminescence system (Clarity Western ECL Substrate and ChemiDoc imaging system, Bio-Rad)."}},
  "note": "Entries after “also recorded” stand apart in the source; their conditions may differ.",
  "data": [
    {"smiles": "CC(=O)O[C@H]1C(=O)[C@@]2(C)[C@H]([C@H](OC(=O)c3ccccc3)[C@]3(O)C[C@H](OC(=O)[C@H](O)[C@@H](NC(=O)c4ccccc4)c4ccccc4)C(C)=C1C3(C)C)[C@]1(OC(C)=O)CO[C@@H]1C[C@@H]2O", "note": "[paclitaxel]", "values": [
      {"measurement": "sensitivity to paclitaxel (cell viability)", "setting": "[1]", "value": "modest reduced sensitivity; also recorded: increased resistance"},
      {"measurement": "clonal resistance to paclitaxel", "setting": "[2]; BT20 cells expressing BCL2L14-ETV6 fusions (E2E3, E4E3, E4E2)", "value": "evident clonal resistance; also recorded: clonal resistance in BT20 cells"},
      {"measurement": "clonal survival after paclitaxel", "setting": "[2]; BT20 cells expressing wtETV6 or vector control", "value": "almost eradicated"},
      {"measurement": "clonal resistance to paclitaxel", "setting": "[3]", "value": "increased clonal resistance; also recorded: clonal resistance in MCF10A cells"},
      {"measurement": "apoptosis biomarkers following paclitaxel treatment", "setting": "[4]", "value": "did not show evident reduced apoptosis"}
    ]}
  ]
}
